Measurements: patent US20190292559A1, “NUCLEOTIDE SEQUENCE FOR IMPROVING RESISTANCE AGAINST PLANT PATHOGENS” (CONSEJO SUPERIOR DE INVESTIGACIONES CIENTIFICAS (CSIS), priority 2016, published 2019)

Columns and labels:
stomata guard cells = assay: Stomatal aperture measurements (MAMP-induced closure, COR-induced reopening); type: cell-based, Arabidopsis; conditions: leaves incubated with MAMPs and 2 μM COR simultaneously
Experimental: Whole leaves from 4- to 6-week-old Arabidopsis plants were collected and exposed to white light for 1.30 hours while floating in a solution containing 50 mM KCl, 10 μm CaCl2, and 10 mm MES-KOH pH=6.1 (opening stomata buffer) with moderate shaking (50 rpm) to induce homogenous stomatal aperture among all Arabidopsis lines to compare. To do the MAMP-induced closure assays, the previous solution was removed and whole leaves were immersed in opening stomata buffer containing Pto DC3000 MAMP extracts at OD600=1,5 (7,5×10^8 cfu/ml), 2 μM of coronatine or a mock solution. Samples were further incubated under the same previous conditions for 4-5 hours. Then, leaves were rapidly peeled and abaxial epidermal peels were placed on cover slips and observed with a microscope (Leica DMR). Stomatal aperture (width/length) was measured using ImageJ software. Error bars represent standard error of the mean (SEM) (n=20). Stomatal experiments were repeated at least three independent times and representative results are shown.
We next analyzed the ability of JAZ2-3 to close stomata upon microbial perception and reopen it in the presence of COR. […] Typically, Pto DC3000 MAMPs were used at optical density at 600 nm OD600=1,5 (7,5×10^8 cfu/ml) for incubation with leaves (Stomatal Aperture Measurements) or Arabidopsis seedlings (Quantitative RT-PCR). […]

JAZ2 protein = target: T1, JAZ2 protein (Arabidopsis thaliana, UniProt O04197+Q9S7M2); assay: JAZ2 protein stability (35S JAZ2-GUS staining); type: cell-based; conditions: JAZ2-GUS transgenic seedlings, 3 h
T1 construct: expressed in transfected cells
T1 sequence (Q9S7M2 1-249): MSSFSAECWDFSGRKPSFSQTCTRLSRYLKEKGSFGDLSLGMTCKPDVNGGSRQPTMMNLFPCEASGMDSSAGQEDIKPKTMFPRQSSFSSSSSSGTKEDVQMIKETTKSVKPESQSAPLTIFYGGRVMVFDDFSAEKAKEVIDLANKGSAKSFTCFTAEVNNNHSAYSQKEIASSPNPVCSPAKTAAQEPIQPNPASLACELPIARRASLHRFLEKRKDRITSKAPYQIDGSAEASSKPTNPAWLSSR
T1 sequence (O04197 1-592): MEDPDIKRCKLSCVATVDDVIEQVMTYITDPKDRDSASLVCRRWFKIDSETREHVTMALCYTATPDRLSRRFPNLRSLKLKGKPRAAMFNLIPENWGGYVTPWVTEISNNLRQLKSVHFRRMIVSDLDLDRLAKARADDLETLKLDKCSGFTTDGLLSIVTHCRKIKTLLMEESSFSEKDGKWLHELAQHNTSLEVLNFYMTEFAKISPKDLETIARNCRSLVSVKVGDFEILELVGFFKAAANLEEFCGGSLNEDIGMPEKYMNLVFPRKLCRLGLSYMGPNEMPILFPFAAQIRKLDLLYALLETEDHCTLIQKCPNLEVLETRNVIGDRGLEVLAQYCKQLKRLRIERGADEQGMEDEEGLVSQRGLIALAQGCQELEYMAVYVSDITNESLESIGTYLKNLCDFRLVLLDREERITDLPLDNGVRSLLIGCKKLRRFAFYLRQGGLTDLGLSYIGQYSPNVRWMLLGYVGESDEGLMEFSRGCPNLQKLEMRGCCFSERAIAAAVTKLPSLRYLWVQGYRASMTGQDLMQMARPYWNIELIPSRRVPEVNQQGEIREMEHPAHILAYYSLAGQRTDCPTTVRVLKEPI
T1 sequence (Q39255 1-160 partner): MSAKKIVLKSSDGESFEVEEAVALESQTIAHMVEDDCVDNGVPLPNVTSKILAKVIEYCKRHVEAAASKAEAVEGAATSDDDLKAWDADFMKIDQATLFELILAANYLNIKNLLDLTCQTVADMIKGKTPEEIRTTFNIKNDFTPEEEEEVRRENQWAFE
Experimental: For JAZ promoter:GUS expression experiments, five to seven days-old seedlings were treated with mock solution or 50 μM JA for 2 h and GUS stained as previously described (Fernandez-Calvo, P. et al. Plant Cell. 2011; 23(2): 701-715). For JAZ2 protein stability experiments, seven to nine days-old seedlings were treated with mock solution or 50 nM COR for 3 h. Then, samples were placed in staining solution containing 50 mM phosphate buffer, pH 7, 0.1% (v/v) Triton X-100 (Sigma-Aldrich), 2 mM 5-bromo-4-chloro-3-indolyl b-D glucuronic acid (X-Gluc, Glycosynth), 1 mM potassium-ferrocyanide (Sigma-Aldrich), and 1 mM potassium-ferricyanide (Sigma-Aldrich) and incubated at 37° C. overnight. After staining, the tissue was soaked several times in 75% ethanol and kept in 5% glycerol until being photographed with a Leica DMR UV/VIS microscope.

JAZ1 promoter = assay: pJAZ1:GUS promoter expression (GUS staining); type: cell-based, Arabidopsis; conditions: 50 μM JA, 2 h
Text: (§1) Transgenic Arabidopsis lines expressing pJAZ:GUS promoter fusions were obtained by cloning the corresponding pJAZ PCR products (pJAZ1 fw cacc[…] [SEQ ID NO: 29]; pJAZ1 rev […] [SEQ ID NO: 30]; pJAZ2 fw cacc[…] [SEQ ID NO: 31]; pJAZ2 rev […] [SEQ ID NO: 32]; pJAZ3 fw cacc[…] [SEQ ID NO: 33]; pJAZ3 rev […] [SEQ ID NO: 34]) into the pENTR™/D-TOPO® system (Invitrogen) and then transferring them to pGWB3. Agrobacterium strain GV3101, containing these constructs, was used to transform Col-0 plants by floral dipping (Clough, S. J. and Bent, A. F. Plant J. 1998, 16(6): 735-743). Several transgenic lines were checked for Kanamycin and Hygromycin resistance and lines carrying one insertion were driven to homozygosis and used for further analysis. pJAZ2:GUS in coi1-30 background was generated by crossing the corresponding parental single homozygous lines. Arabidopsis lines expressing pMYC3:GUS and pMYC4:GUS promoter fusions, were previously reported (Fernandez-Calvo, P. et al. Plant Cell. 2011, 23(2): 701-715). The lines JAZ2-3 (RIKEN_ 13-5433-1) and JAZ2ΔJas (GABI_169B06) were obtained from the Nottingham Arabidopsis Stock Centre. The line JAZ1ΔJas (SEQ ID NO: 61) was obtained from an Arabidopsis activation tagging population (Weigel, D. et al. Plant Physiol. 2000, 122(4): 1003-1013). […]

JAZ2 promoter = assay: pJAZ2:GUS promoter expression (GUS staining); type: cell-based, Arabidopsis; conditions: 50 μM JA, 2 h, young seedlings
Text: as §1

SMILES | COR-induced stomata reopening (stomata guard cells) | COR concentration inducing rapid degradation of JAZ2 protein at guard cells (JAZ2 protein) [nM] | JAZ1 expression (pJAZ1:GUS) after JA treatment (JAZ1 promoter) | JAZ2 expression (pJAZ2:GUS) after JA treatment (JAZ2 promoter)
CC[C@H]1C=C(C(=O)N[C@@]2(C(=O)O)C[C@@H]2CC)[C@H]2CCC(=O)[C@H]2C1 [COR, coronatine] | triggered COR-induced stomata reopening in JAZ2-3 and WT plants, but not in coi1-30 | ≤ 50 | – | –
CC/C=C\C[C@H]1C(=O)CC[C@@H]1CC(=O)O [JA, jasmonic acid] | – | – | strongly induced JAZ1 in roots and mesophyll cells | induced it in roots and mesophyll cells of young seedlings
